# Where a name gives a salt, the structure may show the parent alone.
# How the values were obtained:
# [1] = tested on: M. catarrhalis IPA151 sensitive; assay: MIC by dilutions in agar medium (NCCLS); format: cell-based; settings: Moraxella catarrhalis, IPA151SENSITIVE; Gram-negative, at 48 hours, agar dilution
# Text: (§1) a) Activity in vitro The method of dilutions in agar medium in agreement with the NCCLS recommendations is used for the determination of the minimum inhibitory concentrations (MIC) expressed in μg/ml.
# [2] = tested on: S. aureus AS 5155 methicillin resistant; assay: MIC by dilutions in agar medium (NCCLS); format: cell-based; settings: Staphylococcus aureus; Gram-positive, at 24 hours, agar dilution
# Text: as §1
# [3] = tested on: S. aureus IP8203 sensitive; assay: MIC by dilutions in agar medium (NCCLS); format: cell-based; settings: Staphylococcus aureus; Gram-positive, at 24 hours, agar dilution
# Text: as §1
# [4] = tested on: E. faecalis ATCC29212; assay: MIC by dilutions in agar medium (NCCLS); format: cell-based; settings: Enterococcus faecalis, Gram-positive, at 24 hours, agar dilution
# Text: as §1
# [5] = tested on: S. pneumoniae 6254-01 MLSB resistant; assay: MIC by dilutions in agar medium (NCCLS); format: cell-based; settings: Streptococcus pneumoniae; Gram-positive, at 24 hours, agar dilution
# Text: as §1
compound,measurement,setting,value
"COc1ccc2ncc(Cl)c(CCCC3(C(=O)O)CCN(C/C=C/c4cc(F)ccc4F)C3)c2c1 (racemic) (as salt: sodium) [Example 15, (±)-3-[3-(3-chloro-6-methoxyquinolin-4-yl)propyl]-1-[(2E)-3-(2,5-difluorophenyl)-2-propenyl]-3-pyrrolidinecarboxylic acid]",melting point,,77 °C
"COc1ccc2ncc(F)c(CCCC3(C(=O)O)CCN(C/C=C/c4cc(F)ccc4F)C3)c2c1 (racemic) [Example 1, (±)-1-[(2E)-3-(2,5-difluorophenyl)-2-propenyl]-3-[3-(3-fluoro-6-methoxyquinolin-4-yl)propyl]-3-pyrrolidinecarboxylic acid]",MIC,[1],0.12 to 2 µg/mL
same,MIC,[2],0.015 to 4 µg/mL
same,MIC,[3],0.015 to 4 µg/mL
same,MIC,[4],0.25 to 32 µg/mL
same,MIC,[5],0.015 to 4 µg/mL
same,melting point,,77 °C
"COC(=O)C1(CCCc2c(F)cnc3ccc(OC)cc23)CCN(C/C=C/c2cc(F)ccc2F)C1 (racemic) [Example 2, Methyl (±)-1-[(2E)-3-(2,5-difluorophenyl)-2-propenyl]-3-[3-(3-fluoro-6-methoxyquinolin-4-yl)propyl]-3-pyrrolidinecarboxylate]",MIC,[1],0.12 to 2 µg/mL
same,MIC,[2],0.015 to 4 µg/mL
same,MIC,[3],0.015 to 4 µg/mL
same,MIC,[4],0.25 to 32 µg/mL
same,MIC,[5],0.015 to 4 µg/mL
"COc1ccc2ncc(F)c(CCCC3(C(=O)O)CCN(C/C=C/c4c(F)cccc4F)C3)c2c1 (single isomer, unassigned) (as salt: hydrochloride) [Example 41, 3-[3-(3-fluoro-6-methoxyquinolin-4-yl)propyl]-1-[(2E)-3-(2,6-difluorophenyl)-2-propenyl]-3-pyrrolidinecarboxylic acid]",melting point,,96 °C
"COc1ccc2ncc(F)c(CCCC3(C(=O)O)CCN(C/C=C/c4cc(F)ccc4F)C3)c2c1 (single isomer, unassigned) [Example 3, 1-[(2E)-3-(2,5-difluorophenyl)-2-propenyl]-3-[3-(3-fluoro-6-methoxyquinolin-4-yl)propyl]-3-pyrrolidinecarboxylic acid]",MIC,[1],0.12 to 2 µg/mL
same,MIC,[2],0.015 to 4 µg/mL
same,MIC,[3],0.015 to 4 µg/mL
same,MIC,[4],0.25 to 32 µg/mL
same,MIC,[5],0.015 to 4 µg/mL
same,melting point,,76 to 80 °C
"COc1ccc2ncc(F)c(CCCC3(C(=O)O)CCN(C/C=C/c4cc(F)ccc4F)C3)c2c1 (single isomer, unassigned) [Example 4, 1-[(2E)-3-(2,5-difluorophenyl)-2-propenyl]-3-[3-(3-fluoro-6-methoxyquinolin-4-yl)propyl]-3-pyrrolidinecarboxylic acid]",melting point,,80 to 84 °C
"COc1ccc2ncc(F)c(CCCC3(C(=O)O)CCN(CCSc4cccs4)C3)c2c1 (single isomer, unassigned) [Example 17, 3-[3-(3-fluoro-6-methoxyquinolin-4-yl)propyl]-1-[2-(2-thienylthio)ethyl]-3-pyrrolidinecarboxylic acid]",melting point,,160 °C
"COc1ccc2ncc(F)c(CCCC3(C(=O)O)CCN(CCSc4cccs4)C3)c2c1 (single isomer, unassigned) [Example 18, 3-[3-(3-fluoro-6-methoxyquinolin-4-yl)propyl]-1-[2-(2-thienylthio)ethyl]-3-pyrrolidinecarboxylic acid]",melting point,,172 °C
"COc1ccc2ncc(F)c(CCCC3(C(=O)O)CCN(CCOc4cc(F)ccc4F)C3)c2c1 (single isomer, unassigned) [Example 30, 1-[2-(2,5-difluorophenoxy)ethyl]-3-[3-(3-fluoro-6-methoxyquinolin-4-yl)propyl]-3-pyrrolidinecarboxylic acid]",melting point,,157 °C
"COc1ccc2ncc(F)c(CCCC3(C(=O)O)CCN(C/C=C/c4cc(Cl)ccc4Cl)C3)c2c1 (single isomer, unassigned) [Example 36, 1-[(2E)-3-(2,5-dichlorophenyl)-2-propenyl]-3-[3-(3-fluoro-6-methoxyquinolin-4-yl)propyl]-3-pyrrolidinecarboxylic acid]",melting point,,102 °C
"COc1ccc2ncc(F)c(CCCC3(C(=O)O)CCN(C/C=C/c4cc(F)c(F)c(F)c4)C3)c2c1 (single isomer, unassigned) [Example 49, 3-[3-(3-fluoro-6-methoxyquinolin-4-yl)propyl]-1-[(2E)-3-(3,4,5-trifluorophenyl)-2-propenyl]-3-pyrrolidinecarboxylic acid]",melting point,,110 °C
"COc1ccc2ncc(F)c(CCCC3(C(=O)O)CCN(C/C=C/c4cc(F)c(F)c(F)c4)C3)c2c1 (single isomer, unassigned) [Example 50, 3-[3-(3-fluoro-6-methoxyquinolin-4-yl)propyl]-1-[(2E)-3-(3,4,5-trifluorophenyl)-2-propenyl]-3-pyrrolidinecarboxylic acid]",melting point,,148 °C
"COc1ccc2ncc(F)c(CCCC3(C(=O)O)CCN(CCSc4c(F)cccc4F)C3)c2c1 (single isomer, unassigned) [Example 57, 1-[2-[(2,6-difluorophenyl)thio]ethyl]-3-[3-(3-fluoro-6-methoxyquinolin-4-yl)propyl]-3-pyrrolidinecarboxylic acid]",melting point,,106 °C
"COc1ccc2ncc(F)c(CCCC3(C(=O)O)CN(C/C=C/c4cc(F)ccc4F)C3)c2c1 [Example 11, 1-[(2E)-3-(2,5-difluorophenyl)-2-propenyl]-3-[3-(3-fluoro-6-methoxyquinolin-4-yl)propyl]-3-azetidinecarboxylic acid]",melting point,,211 °C

# — patent US7232833B2, “4-substituted quinoline derivatives, method and intermediates for their preparation and pharmaceutical compositions containing them” (Novexel, priority 2003, dated 2007)
